Literature values in patent publication US9758831B2, “Methods of predicting clinical course and treating multiple sclerosis” (Tel HaShomer Medical Research Infrastructure and Services …, priority 2009, dated 2017).

Tests used:
[1] = tested on: RRN3
[2] = tested on: RRN3/rpa43 complex; conditions: in vivo
[3] = tested on: Experimental Autoimmune Encephalomyelitis; conditions: in vivo
[4] = tested on: T lymphocyte
[5] = tested on: dendritic cells
[6] = tested on: activated macrophages

| SMILES | association of RRN3 with RNA polymerase I [1] | phosphorylation of RRN3 [1] | formation of RRN3/rpa43 complex [2] | T-cell inflammatory responses [3] | effect on Experimental Autoimmune Encephalomyelitis [3] | IFNγ production [4] | T cell apoptosis [4] | lymphocyte proliferation [4] | IL2 and IL2 receptor expression ([4]; activated T cells) | maturation, antigen processing and presentation of dendritic cells [5] | TNF-a and IL-6 production [6] |
| --- | --- | --- | --- | --- | --- | --- | --- | --- | --- | --- | --- |
| C[C@@H]1C[C@@H]([C@H](O)CC2CC(=O)NC(=O)C2)C(=O)[C@@H](C)C1 [Cycloheximide] | causes its dissociation from RNA polymerase I | inhibits the phosphorylation of RRN3 | inhibits the formation of a RRN3/rpa43 complex in vivo |  |  |  |  |  |  |  |  |
| CC(C)[C@]12O[C@H]1[C@@H]1O[C@]13[C@]1(O[C@H]1C[C@H]1C4=C(CC[C@@]13C)C(=O)OC4)[C@@H]2O [Triptolide, Trisoxireno(4b,5:6,7:8a,9)phenanthro(1,2-c)furan-1(3H)-one, 3b,4,4a,6,6a,7a,7b,8b,9,10-decahydro-6-hydroxy-8b-methyl-6a-(1-methylethyl)-, (3bS,4aS,5aS,6R,6aR,7aS,7bS,8aS,8bS)-] |  |  |  | modulates T-cell inflammatory responses | ameliorates Experimental Autoimmune Encephalomyelitis | inhibition | T cell apoptosis induction | inhibition of lymphocyte prolipheration | decreased | can inhibit | can suppress |
